Results from ChEMBL document CHEMBL5370584, “Reprogramming Energy Metabolism with Synthesized PDK Inhibitors Based on Dichloroacetate Derivatives and Targeted Delivery Systems for Enhanced Cancer Therapy” (J Med Chem, 2023).
Activity calls are given as the source filed them. The rule behind the calls is not given here.

Key:
MOLM-13 = test: Antiproliferative activity against human MOLM-13 cells assessed as inhibition of cell growth incubated for 24 hrs by MTT assay; format: functional, cell-based; conditions: MOLM-13, 24 h
NB-4 = test: Antiproliferative activity against human NB4 cells assessed as inhibition of cell growth incubated for 24 hrs by MTT assay; format: functional, cell-based; conditions: NB-4, 24 h
4T1 [1] = test: Antiproliferative activity against mouse 4T1 cells assessed as inhibition of cell growth incubated for 24 hrs by MTT assay; format: functional, cell-based; conditions: 4T1, 24 h
MCF7 = test: Antiproliferative activity against human MCF7 cells assessed as inhibition of cell growth incubated for 24 hrs by MTT assay; format: functional, cell-based; conditions: MCF7, 24 h
HeLa = test: Antiproliferative activity against human HeLa cells assessed as inhibition of cell growth incubated for 24 hrs by MTT assay; format: functional, cell-based
[2] = (§1) Antiproliferative activity against African green monkey COS7 cells assessed as inhibition of cell growth incubated for 24 hrs by MTT assay; format: toxicity, cell-based, Chlorocebus aethiops, COS-7; conditions: African green monkey (Chlorocebus aethiops), COS-7 cells
[3] = molecular target: [Pyruvate dehydrogenase (acetyl-transferring)] kinase isozyme 1, mitochondrial (Homo sapiens, UniProt Q15118); test: Inhibition of PDK1 (unknown origin) incubated for 30 mins in presence of ATP by kinase glo luminescent kinase assay
[4] = Inhibition of PDK (unknown origin) incubated for 10 mins in presence of ATP; parameters: species or system Homo sapiens
Prostate cell = test: Antiproliferative activity against human prostate cell assessed as inhibition of cell viability measured after 72 hrs by MTT assay; format: functional, cell-based
4T1 [5] = test: Inhibition of glycolysis in mouse 4T1 cell lysates assessed as reduction in extracellular acidification rate at 20 mM measured after 6 hrs; format: functional, cell-based
[6] = Inhibition of PDK (unknown origin); parameters: species or system Homo sapiens
COS-7 = test: as §1; format: toxicity, cell-based, Chlorocebus aethiops; conditions: cos-7
Breast cancer cell line = test: Antiproliferative activity against human Breast cancer cell line assessed as inhibition of cell viability measured after 72 hrs by MTT assay; format: functional, cell-based
[7] = molecular target: [Pyruvate dehydrogenase (acetyl-transferring)] kinase isozyme 1, mitochondrial (Mus musculus) (UniProt Q8BFP9); test: Inhibition of PDK1 transcription in mouse 4T1 cells at 4 uM incubated for 24 hrs by qPCR analysis; format: cell-based
[8] = molecular target: [Pyruvate dehydrogenase (acetyl-transferring)] kinase isozyme 2, mitochondrial (Mus musculus) (UniProt Q9JK42); test: Inhibition of PDK2 transcription in mouse 4T1 cells at 4 uM incubated for 24 hrs by qPCR analysis; format: cell-based
[9] = molecular target: [Pyruvate dehydrogenase (acetyl-transferring)] kinase isozyme 3, mitochondrial (Mus musculus) (UniProt Q922H2); test: Inhibition of PDK3 transcription in mouse 4T1 cells at 4 uM incubated for 24 hrs by qPCR analysis; format: cell-based
[10] = molecular target: [Pyruvate dehydrogenase (acetyl-transferring)] kinase isozyme 4, mitochondrial (Mus musculus) (UniProt O70571); test: Inhibition of PDK4 transcription in mouse 4T1 cells at 4 uM incubated for 24 hrs by qPCR analysis; format: cell-based
4T1 [11] = test: Inhibition of PDK1 expression in mouse 4T1 cells at 4 uM incubated for 24 hrs by Western blot analysis; format: functional, cell-based
4T1 [12] = test: Inhibition of PDK4 expression in mouse 4T1 cells at 4 uM incubated for 24 hrs by Western blot analysis; format: functional, cell-based
4T1 [13] = test: Inhibition of glycolysis in mouse 4T1 cell lysates assessed as reduction in extracellular acidification rate at 2 uM measured after 6 hrs; format: functional, cell-based

[Pyruvate dehydrogenase (acetyl-transferring)] kinase isozyme 1, mitochondrial, sequence (Q15118 whole entry): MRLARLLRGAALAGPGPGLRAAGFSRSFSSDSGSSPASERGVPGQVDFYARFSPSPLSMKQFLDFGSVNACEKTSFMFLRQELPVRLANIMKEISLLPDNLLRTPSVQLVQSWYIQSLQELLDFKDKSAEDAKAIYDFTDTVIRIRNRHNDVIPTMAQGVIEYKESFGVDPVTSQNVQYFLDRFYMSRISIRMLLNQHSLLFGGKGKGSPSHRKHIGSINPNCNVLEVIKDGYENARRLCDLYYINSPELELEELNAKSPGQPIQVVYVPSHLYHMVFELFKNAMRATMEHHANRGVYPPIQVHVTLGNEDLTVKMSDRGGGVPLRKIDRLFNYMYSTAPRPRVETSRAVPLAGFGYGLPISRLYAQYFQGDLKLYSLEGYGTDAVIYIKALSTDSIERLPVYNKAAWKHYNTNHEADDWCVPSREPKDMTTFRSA
[Pyruvate dehydrogenase (acetyl-transferring)] kinase isozyme 3, mitochondrial (Mus musculus), sequence (Q922H2 whole entry): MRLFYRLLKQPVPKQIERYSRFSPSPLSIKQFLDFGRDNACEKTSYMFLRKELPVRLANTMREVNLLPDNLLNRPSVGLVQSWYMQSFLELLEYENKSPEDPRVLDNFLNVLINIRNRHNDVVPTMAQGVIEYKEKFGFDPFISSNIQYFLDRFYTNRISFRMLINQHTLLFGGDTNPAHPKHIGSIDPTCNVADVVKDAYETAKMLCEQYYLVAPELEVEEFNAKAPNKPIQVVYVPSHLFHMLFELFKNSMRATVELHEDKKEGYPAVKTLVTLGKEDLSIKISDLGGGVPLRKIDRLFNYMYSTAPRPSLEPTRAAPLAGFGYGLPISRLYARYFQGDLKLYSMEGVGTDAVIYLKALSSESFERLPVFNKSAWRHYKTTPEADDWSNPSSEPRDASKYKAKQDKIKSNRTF
[Pyruvate dehydrogenase (acetyl-transferring)] kinase isozyme 1, mitochondrial (Mus musculus), sequence (Q8BFP9 whole entry): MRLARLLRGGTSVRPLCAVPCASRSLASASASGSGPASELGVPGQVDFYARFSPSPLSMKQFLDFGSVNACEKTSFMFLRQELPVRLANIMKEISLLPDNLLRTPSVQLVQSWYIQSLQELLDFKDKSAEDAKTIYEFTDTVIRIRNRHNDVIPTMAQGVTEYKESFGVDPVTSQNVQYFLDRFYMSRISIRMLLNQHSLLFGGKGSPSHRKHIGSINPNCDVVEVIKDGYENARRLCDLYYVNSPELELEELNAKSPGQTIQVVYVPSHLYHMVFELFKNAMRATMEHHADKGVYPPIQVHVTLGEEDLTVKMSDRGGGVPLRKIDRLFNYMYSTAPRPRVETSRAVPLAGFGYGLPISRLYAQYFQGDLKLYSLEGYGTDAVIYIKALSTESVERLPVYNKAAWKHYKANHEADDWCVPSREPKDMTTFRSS
[Pyruvate dehydrogenase (acetyl-transferring)] kinase isozyme 4, mitochondrial (Mus musculus), sequence (O70571 whole entry): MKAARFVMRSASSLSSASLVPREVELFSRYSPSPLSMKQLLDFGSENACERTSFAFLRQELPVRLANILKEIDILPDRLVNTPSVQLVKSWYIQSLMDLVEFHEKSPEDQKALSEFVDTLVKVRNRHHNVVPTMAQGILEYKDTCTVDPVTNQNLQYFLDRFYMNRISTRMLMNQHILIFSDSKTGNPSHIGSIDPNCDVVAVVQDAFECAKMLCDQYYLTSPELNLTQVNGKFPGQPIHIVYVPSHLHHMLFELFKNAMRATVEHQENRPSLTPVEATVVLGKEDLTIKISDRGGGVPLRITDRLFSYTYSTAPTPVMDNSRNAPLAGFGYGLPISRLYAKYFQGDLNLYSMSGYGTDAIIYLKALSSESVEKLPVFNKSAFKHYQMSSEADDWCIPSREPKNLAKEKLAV

Compound | IC50 (MOLM-13) [µM] | IC50 (NB-4) [µM] | IC50 (4T1 [1]) [µM] | IC50 (MCF7) [µM] | IC50 (HeLa) [µM] | IC50 at 24 h [2] [µM] | EC50 [3] [µM] | other results
O=C(CCCCCCCCCCCNC(=O)C(Cl)Cl)Nc1ccc([As]2SCCCS2)cc1 | 0.8 | 0.71 | 1.4 | 1.53 | 0.94 | 1.15 | 1.3 | 
O=C(CCCNC(=O)C(Cl)Cl)Nc1ccccc1[As]1SCCCS1 | 1.97 | 2.1 | 332 | 2.85 | 3.34 | 6.06 | 2.9 | 
O=C([O-])C(Cl)Cl.[Na+] [SODIUM DICHLOROACETATE] |  |  |  |  |  |  |  | EC50 [4]: 180 µM
O=C(CCCCCCCNC(=O)C(Cl)Cl)Nc1ccccc1[As]1SCCCS1 | 2.88 | 1.73 | 2.98 | 2.82 | 2.09 | 4.8 | 1.9 | 
COc1ccc(-c2c(-c3ccc(O)cc3O)n[nH]c2C)cc1 |  |  |  |  |  |  |  | EC50 [4]: 648 µM
O=S(=O)(c1ccc(O)cc1O)N1Cc2cc(O)cc(O)c2C1 |  |  |  |  |  |  |  | EC50 [4]: 0.8 µM
O=C(CCCCC[P+](c1ccccc1)(c1ccccc1)c1ccccc1)NC(COC(=O)C(Cl)Cl)(COC(=O)C(Cl)Cl)COC(=O)C(Cl)Cl |  |  |  |  |  |  |  | IC50 (Prostate cell): 17 µM
O=C(Nc1ccccc1[As]1SCCCS1)C(Cl)Cl | 0.48 | 0.52 | 1.1 | 0.77 | 0.27 | 1.87 | 9.6 | 
O=C(O)C(Cl)Cl |  |  |  |  |  |  |  | inhibition (4T1 [5]): inactive
O=C(CCCCCCNC(=O)C(Cl)Cl)Nc1ccccc1[As]1SCCCS1 | 1.98 | 1.63 | 2.65 | 2.94 | 1.95 | 8.07 | 1.2 | 
O=C(CCCNC(=O)C(Cl)Cl)Nc1ccc([As]2SCCCS2)cc1 | 1.34 | 1.25 | 2.8 | 6.74 | 3.52 | 6.12 | 1 | 
O=C(CCCCCCNC(=O)C(Cl)Cl)Nc1ccc([As]2SCCCS2)cc1 | 1.29 | 1.16 | 2.1 | 1.94 | 2.5 | 9.66 | 0.19 | 
CC(C)c1ccc(COc2ccc(CC(=O)NCCN)cc2Cl)cc1 |  |  |  |  |  |  |  | EC50 [6]: 2 µM
O=C(CCCCCNC(=O)C(Cl)Cl)Nc1ccccc1[As]1SCCCS1 | 1.61 | 1.98 | 2.12 | 2.11 | 3.75 | 6.13 | 3.2 | 
O=C(CCNC(=O)C(Cl)Cl)Nc1ccc([As]2SCCCS2)cc1 | 1.34 | 1.22 | 2.68 | 3.2 | 3.15 | 6.27 | 1.9 | 
C[C@@H]1CN(C(=O)[C@@](C)(O)C(F)(F)F)[C@@H](C)CN1C(=O)c1ccc(C#N)cc1 |  |  |  |  |  |  |  | EC50 [6]: 0.016 µM
O=C(CCNC(=O)C(Cl)Cl)Nc1ccccc1[As]1SCCCS1 | 1.68 | 1.61 | 3.23 | 3.56 | 2.54 | 5.23 | 2.6 | 
O=C(CCCCCCCCCCCNC(=O)C(Cl)Cl)Nc1ccccc1[As]1SCCCS1 | 1.35 | 0.92 | 2.98 | 1.82 | 1.65 | 3 | 1.6 | 
O=C(O)C(Cl)Cl [DICHLOROACETIC ACID] | 22000 | 20000 | 30000 | 35000 | 25000 |  |  | IC50 (COS-7): 40000 µM
CC1(C)CC[C@]2(C(=O)O)CC[C@]3(C)C(=CC[C@@H]4[C@@]5(C)CC[C@H](O[C@@H]6O[C@H](CO[C@@H]7OC[C@H](O)[C@H](O)[C@H]7O)[C@@H](O)[C@H](O)[C@H]6NC(=O)C(Cl)Cl)C(C)(C)[C@@H]5CC[C@]43C)[C@@H]2C1 |  |  |  |  |  |  |  | IC50 (Breast cancer cell line): 0.43 µM
O=C(CCCCNC(=O)C(Cl)Cl)Nc1ccccc1[As]1SCCCS1 | 1.77 | 1.7 | 3.7 | 5.32 | 4.72 | 5.58 | 0.65 | 
C[C@@H]1C[C@H]2O[C@@H]2/C=C\C=C\C(=O)Cc2c(Cl)c(O)cc(O)c2C(=O)O1 [RADICICOL] |  |  |  |  |  |  |  | EC50 [4]: 1100 µM
O=C(CCCCCCCNC(=O)C(Cl)Cl)Nc1ccc([As]2SCCCS2)cc1 | 1.24 | 1.09 | 1.73 | 1.9 | 1.89 | 9.62 | 0.62 | 
O=C(Nc1ccc([As]2SCCCS2)cc1)C(Cl)Cl | 0.91 | 0.96 | 0.98 | 1.79 | 0.69 | 3.74 | 4.7 | inhibition [7]: inactive; inhibition [8]: inactive; inhibition [9]: inactive; inhibition [10]: inactive; inhibition (4T1 [11]): inactive; inhibition (4T1 [12]): inactive; inhibition (4T1 [13]): inactive
O=C(CCCCNC(=O)C(Cl)Cl)Nc1ccc([As]2SCCCS2)cc1 | 1.22 | 1.35 | 2.77 | 9.31 | 3.22 | 4.6 | 0.93 | 
CN(C)C(=O)c1ccc(S(=O)(=O)c2ccc(NC(=O)[C@@](C)(O)C(F)(F)F)c(Cl)c2)cc1 |  |  |  |  |  |  |  | EC50 [4]: 0.087 µM
